# Assay results published in ChEMBL document CHEMBL1201861, “Genomics of Drug Sensitity in Cancer screening data, Wellcome Trust Sanger Institute”.
# What was measured:
# Test in all cases: cells
# HD-MY-Z = format: functional, cell-based, Homo sapiens; conditions: Homo sapiens, HD-MY-Z;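 note: growth inhibition of HD-MY-Z cells, read out with a cell viability assay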
# Description: SANGER: Inhibition of human HD-MY-Z cell growth in a cell viability assay.
# DBTRG-05MG = format: functional, cell-based, Homo sapiens; conditions: Homo sapiens, DBTRG-05MG;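 note: cell viability assay measuring growth inhibition of human DBTRG-05MG cells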
# Description: SANGER: Inhibition of human DBTRG-05MG cell growth in a cell viability assay.
# GP5d = format: functional, cell-based, Homo sapiens; conditions: Homo sapiens, GP5d;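 note: growth inhibition of human GP5d cells, read out with a cell viability assay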
# Description: SANGER: Inhibition of human GP5d cell growth in a cell viability assay.
# UMUC3 = format: functional, cell-based, Homo sapiens; conditions: Homo sapiens, UMUC3;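 note: growth inhibition of human UM-UC-3 cells, read out with a cell viability assay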
# Description: SANGER: Inhibition of human UM-UC-3 cell growth in a cell viability assay.
# IST-MES1 = format: functional, cell-based, Homo sapiens; conditions: Homo sapiens, IST-MES1;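 note: growth inhibition of IST-MES1 cells, measured with a cell viability assay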
# Description: SANGER: Inhibition of human IST-MES1 cell growth in a cell viability assay.
# ES3 = format: functional, cell-based, Homo sapiens; conditions: Homo sapiens, ES3;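 note: growth inhibition of ES3 cells, read out with a cell viability assay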
# Description: SANGER: Inhibition of human ES3 cell growth in a cell viability assay.
# NCI-N87 = format: functional, cell-based, Homo sapiens; conditions: Homo sapiens, NCI-N87;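 note: growth inhibition of human NCI-N87 cells, read out with a cell viability assay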
# Description: SANGER: Inhibition of human NCI-N87 cell growth in a cell viability assay.
# OAW-28 = format: functional, cell-based, Homo sapiens; conditions: Homo sapiens, OAW-28;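 note: growth inhibition of OAW-28 cells, read out with a cell viability assay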
# Description: SANGER: Inhibition of human OAW-28 cell growth in a cell viability assay.
# MDA-MB-175-VII = format: functional, cell-based, Homo sapiens; conditions: Homo sapiens, MDA-MB-175-VII
# AU565 = format: functional, cell-based, Homo sapiens; conditions: Homo sapiens, AU565;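 note: cell viability assay measuring growth inhibition of human AU565 cells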
# Description: SANGER: Inhibition of human AU565 cell growth in a cell viability assay.
# DMS-114 = format: functional, cell-based, Homo sapiens; conditions: Homo sapiens, DMS-114
# LB771-HNC = format: functional, cell-based, Homo sapiens; conditions: Homo sapiens, LB771-HNC;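 note: growth inhibition of LB771-HNC human cells, read out with a cell viability assay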
# Description: SANGER: Inhibition of human LB771-HNC cell growth in a cell viability assay.
# T84 = format: functional, cell-based, Homo sapiens; conditions: Homo sapiens, T84;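 note: growth inhibition measured with a cell viability readout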
# Description: SANGER: Inhibition of human T84 cell growth in a cell viability assay.
# NCI-H23 = format: functional, cell-based, Homo sapiens; conditions: Homo sapiens, NCI-H23;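 note: cell viability assay measuring growth inhibition of NCI-H23 cells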
# Description: SANGER: Inhibition of human NCI-H23 cell growth in a cell viability assay.
# Huh-7 = format: functional, cell-based, Homo sapiens; conditions: Homo sapiens, Huh-7;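 note: HuH-7 cell growth inhibition, read out with a cell viability assay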
# Description: SANGER: Inhibition of human HuH-7 cell growth in a cell viability assay.
# NCI-H1650 = format: functional, cell-based, Homo sapiens; conditions: Homo sapiens, NCI-H1650;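 note: growth inhibition of human NCI-H1650 cells measured by a cell viability assay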
# Description: SANGER: Inhibition of human NCI-H1650 cell growth in a cell viability assay.
# M14 = format: functional, cell-based, Homo sapiens; conditions: Homo sapiens, M14;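 note: growth inhibition of M14 cells, read out with a cell viability assay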
# Description: SANGER: Inhibition of human M14 cell growth in a cell viability assay.
# MN-60 = format: functional, cell-based; conditions: Homo sapiens;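 note: growth inhibition of the MN-60 cell line, determined with a cell viability assay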
# Description: SANGER: Inhibition of human MN-60 cell growth in a cell viability assay.
# NCI-H1563 = format: functional, cell-based, Homo sapiens; conditions: Homo sapiens, NCI-H1563;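 note: growth inhibition of human NCI-H1563 cells, read out with a cell viability assay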
# Description: SANGER: Inhibition of human NCI-H1563 cell growth in a cell viability assay.
# PANC-03-27 = format: functional, cell-based, Homo sapiens; conditions: Homo sapiens, PANC-03-27
# Description: SANGER: Inhibition of human PANC-03-27 cell growth in a cell viability assay.
# NCI-H596 = format: functional, cell-based, Homo sapiens; conditions: Homo sapiens, NCI-H596;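 note: growth inhibition of NCI-H596 cells, read out with a cell viability assay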
# Description: SANGER: Inhibition of human NCI-H596 cell growth in a cell viability assay.
# SK-N-FI = format: functional, cell-based, Homo sapiens; conditions: Homo sapiens, SK-N-FI;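 note: cell viability assay measuring growth inhibition of human SK-N-FI cells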
# Description: SANGER: Inhibition of human SK-N-FI cell growth in a cell viability assay.
# K5 = format: functional, cell-based, Homo sapiens; conditions: Homo sapiens, K5
# Description: SANGER: Inhibition of human K5 cell growth in a cell viability assay.
# NB13 = format: functional, cell-based, Homo sapiens; conditions: Homo sapiens, NB13;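 note: cell viability readout measuring growth inhibition of human NB13 cells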
# Description: SANGER: Inhibition of human NB13 cell growth in a cell viability assay.
# G-401 = format: functional, cell-based, Homo sapiens; conditions: Homo sapiens, G-401
# Description: SANGER: Inhibition of human G-401 cell growth in a cell viability assay.
# DoTc2-4510 = format: functional, cell-based, Homo sapiens; conditions: Homo sapiens, DoTc2-4510
# EW-16 = format: functional, cell-based, Homo sapiens; conditions: Homo sapiens, EW-16;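 note: growth inhibition of human EW-16 cells, read out as cell viability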
# Description: SANGER: Inhibition of human EW-16 cell growth in a cell viability assay.
# SW1710 = format: functional, cell-based, Homo sapiens; conditions: Homo sapiens, SW1710;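 note: growth inhibition of SW1710 cells, determined with a cell viability assay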
# Description: SANGER: Inhibition of human SW1710 cell growth in a cell viability assay.
# P30-OHK = format: functional, cell-based; conditions: Homo sapiens;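 note: growth inhibition of the P30-OHK cell line, read out with a cell viability assay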
# Description: SANGER: Inhibition of human P30-OHK cell growth in a cell viability assay.
# A 172 = format: functional, cell-based, Homo sapiens; conditions: Homo sapiens, A 172;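 note: growth inhibition of A172 cells, measured with a cell viability readout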
# Description: SANGER: Inhibition of human A172 cell growth in a cell viability assay.
# U-118-MG = format: functional, cell-based, Homo sapiens; conditions: Homo sapiens, U-118-MG
# Description: SANGER: Inhibition of human U-118-MG cell growth in a cell viability assay.
# ACHN = format: functional, cell-based, Homo sapiens; conditions: Homo sapiens, ACHN;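 note: cell viability read-out used to gauge how strongly growth of human ACHN cells is suppressed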
# Description: SANGER: Inhibition of human ACHN cell growth in a cell viability assay.
# CP66-MEL = format: functional, cell-based, Homo sapiens; conditions: Homo sapiens, CP66-MEL;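 note: growth inhibition of CP66-MEL cells determined in a cell viability assay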
# Description: SANGER: Inhibition of human CP66-MEL cell growth in a cell viability assay.
# CW-2 = format: functional, cell-based, Homo sapiens; conditions: Homo sapiens, CW-2;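 note: growth inhibition of CW-2 cells, read out by a cell viability assay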
# Description: SANGER: Inhibition of human CW-2 cell growth in a cell viability assay.
# ASPC1 = format: functional, cell-based, Homo sapiens; conditions: Homo sapiens, ASPC1;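 note: growth inhibition of AsPC-1 cells, read out with a cell viability assay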
# Description: SANGER: Inhibition of human AsPC-1 cell growth in a cell viability assay.
# COLO-824 = format: functional, cell-based, Homo sapiens; conditions: Homo sapiens, COLO-824
# Description: SANGER: Inhibition of human COLO-824 cell growth in a cell viability assay.
# CAL-120 = format: functional, cell-based, Homo sapiens; conditions: Homo sapiens, CAL-120;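 note: cell growth inhibition, read out as cell viability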
# Description: SANGER: Inhibition of human CAL-120 cell growth in a cell viability assay.
# D-247MG = format: functional, cell-based, Homo sapiens; conditions: Homo sapiens, D-247MG
# Description: SANGER: Inhibition of human D-247MG cell growth in a cell viability assay.
# GI-1 = format: functional, cell-based, Homo sapiens; conditions: Homo sapiens, GI-1;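 note: growth inhibition of human GI-1 cells, measured with a cell viability readout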
# Description: SANGER: Inhibition of human GI-1 cell growth in a cell viability assay.
# COR-L88 = format: functional, cell-based; conditions: Homo sapiens;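 note: growth inhibition of COR-L88 cells, read out with a cell viability assay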
# Description: SANGER: Inhibition of human COR-L88 cell growth in a cell viability assay.
# LB2518-MEL = format: functional, cell-based, Homo sapiens; conditions: Homo sapiens, LB2518-MEL;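 note: growth inhibition of human LB2518-MEL cells, measured with a cell viability assay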
# Description: SANGER: Inhibition of human LB2518-MEL cell growth in a cell viability assay.
# SF-268 = format: functional, cell-based, Homo sapiens; conditions: Homo sapiens, SF-268;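 note: growth inhibition of SF-268 cells determined with a cell viability assay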
# Description: SANGER: Inhibition of human SF268 cell growth in a cell viability assay.
# SW1990 = format: functional, cell-based, Homo sapiens; conditions: Homo sapiens, SW1990;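 note: cell growth inhibition determined with a viability assay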
# Description: SANGER: Inhibition of human SW1990 cell growth in a cell viability assay.
# MMAC-SF = format: functional, cell-based, Homo sapiens; conditions: Homo sapiens, MMAC-SF;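 note: growth inhibition of human MMAC-SF cells, read out with a cell viability assay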
# Description: SANGER: Inhibition of human MMAC-SF cell growth in a cell viability assay.
# K562 = format: functional, cell-based; conditions: Homo sapiens
# Description: SANGER: Inhibition of human K-562 cell growth in a cell viability assay.
# NB69 = format: functional, cell-based, Homo sapiens; conditions: Homo sapiens, NB69;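 note: growth inhibition of NB69 cells, determined by a cell viability assay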
# Description: SANGER: Inhibition of human NB69 cell growth in a cell viability assay.
# VA-ES-BJ = format: functional, cell-based, Homo sapiens; conditions: Homo sapiens, VA-ES-BJ;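 note: growth inhibition of the VA-ES-BJ cell line, read out by a cell viability assay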
# Description: SANGER: Inhibition of human VA-ES-BJ cell growth in a cell viability assay.
# HT-1376 = format: functional, cell-based, Homo sapiens; conditions: Homo sapiens, HT-1376
# Description: SANGER: Inhibition of human HT-1376 cell growth in a cell viability assay.
# COR-L105 = format: functional, cell-based, Homo sapiens; conditions: Homo sapiens, COR-L105;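 note: cell growth inhibition determined with a viability assay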
# Description: SANGER: Inhibition of human COR-L105 cell growth in a cell viability assay.
smiles,measurement,setting,value
COC(=O)CNC(=O)C(=O)OC,IC50,HD-MY-Z,1480 µM
same,IC50,DBTRG-05MG,311 µM
same,IC50,GP5d,636 µM
same,IC50,UMUC3,264 µM
same,IC50,IST-MES1,> 4000 µM
same,IC50,ES3,701 µM
same,IC50,NCI-N87,3950 µM
same,IC50,OAW-28,2110 µM
same,IC50,MDA-MB-175-VII,> 4000 µM
same,IC50,AU565,> 4000 µM
same,IC50,DMS-114,> 4000 µM
same,IC50,LB771-HNC,412 µM
same,IC50,T84,> 4000 µM
same,IC50,NCI-H23,2950 µM
same,IC50,Huh-7,61.7 µM
same,IC50,NCI-H1650,329 µM
same,IC50,M14,1860 µM
same,IC50,MN-60,147 µM
same,IC50,NCI-H1563,124 µM
same,IC50,PANC-03-27,672 µM
same,IC50,NCI-H596,> 4000 µM
same,IC50,SK-N-FI,> 4000 µM
same,IC50,K5,160 µM
same,IC50,NB13,659 µM
same,IC50,G-401,1460 µM
same,IC50,DoTc2-4510,153 µM
same,IC50,EW-16,377 µM
same,IC50,SW1710,277 µM
same,IC50,P30-OHK,467 µM
same,IC50,A 172,566 µM
same,IC50,U-118-MG,784 µM
same,IC50,ACHN,297 µM
same,IC50,CP66-MEL,445 µM
same,IC50,CW-2,> 4000 µM
same,IC50,ASPC1,3920 µM
same,IC50,COLO-824,2400 µM
same,IC50,CAL-120,806 µM
same,IC50,D-247MG,2410 µM
same,IC50,GI-1,146 µM
same,IC50,COR-L88,273 µM
same,IC50,LB2518-MEL,235 µM
same,IC50,SF-268,414 µM
same,IC50,SW1990,441 µM
same,IC50,MMAC-SF,881 µM
same,IC50,K562,2030 µM
same,IC50,NB69,213 µM
same,IC50,VA-ES-BJ,907 µM
same,IC50,HT-1376,389 µM
same,IC50,COR-L105,26.4 µM
O=c1cc(-c2cccc3c2Sc2ccccc2S3)oc(N2CCOCC2)c1 [KU-55933],IC50,HD-MY-Z,> 10 µM
same,IC50,DBTRG-05MG,> 10 µM
same,IC50,GP5d,> 10 µM
same,IC50,UMUC3,> 10 µM
same,IC50,IST-MES1,> 10 µM
same,IC50,ES3,> 10 µM
same,IC50,NCI-N87,> 10 µM
same,IC50,OAW-28,> 10 µM
same,IC50,MDA-MB-175-VII,> 10 µM
same,IC50,AU565,> 10 µM
same,IC50,DMS-114,> 10 µM
same,IC50,LB771-HNC,> 10 µM
same,IC50,T84,> 10 µM
same,IC50,NCI-H23,> 10 µM
same,IC50,Huh-7,> 10 µM
same,IC50,NCI-H1650,> 10 µM
same,IC50,M14,> 10 µM
same,IC50,MN-60,> 10 µM
same,IC50,NCI-H1563,> 10 µM
same,IC50,PANC-03-27,> 10 µM
same,IC50,NCI-H596,> 10 µM
same,IC50,SK-N-FI,> 10 µM
same,IC50,K5,> 10 µM
same,IC50,NB13,> 10 µM
same,IC50,G-401,> 10 µM
same,IC50,DoTc2-4510,> 10 µM
same,IC50,EW-16,> 10 µM
same,IC50,SW1710,> 10 µM
same,IC50,P30-OHK,> 10 µM
same,IC50,A 172,> 10 µM
same,IC50,U-118-MG,> 10 µM
same,IC50,ACHN,> 10 µM
same,IC50,CP66-MEL,> 10 µM
same,IC50,CW-2,> 10 µM
same,IC50,ASPC1,> 10 µM
same,IC50,COLO-824,> 10 µM
same,IC50,CAL-120,> 10 µM
same,IC50,D-247MG,> 10 µM
same,IC50,GI-1,> 10 µM
same,IC50,LB2518-MEL,> 10 µM
same,IC50,SF-268,> 10 µM
same,IC50,SW1990,> 10 µM
same,IC50,MMAC-SF,> 10 µM
same,IC50,K562,> 10 µM
same,IC50,NB69,> 10 µM
same,IC50,VA-ES-BJ,> 10 µM
same,IC50,HT-1376,> 10 µM
same,IC50,COR-L105,> 10 µM
Cn1cc(C2=C(c3ccc(Cl)cc3Cl)C(=O)NC2=O)c2ccccc21 [SB-216763],IC50,HD-MY-Z,> 10 µM
same,IC50,DBTRG-05MG,> 10 µM
same,IC50,GP5d,> 10 µM
same,IC50,UMUC3,> 10 µM
same,IC50,IST-MES1,> 10 µM
same,IC50,ES3,> 10 µM
same,IC50,NCI-N87,> 10 µM
same,IC50,OAW-28,> 10 µM
same,IC50,MDA-MB-175-VII,> 10 µM
same,IC50,AU565,> 10 µM
same,IC50,DMS-114,> 10 µM
same,IC50,LB771-HNC,> 10 µM
same,IC50,T84,> 10 µM
same,IC50,NCI-H23,> 10 µM
same,IC50,Huh-7,> 10 µM
same,IC50,NCI-H1650,> 10 µM
same,IC50,M14,> 10 µM
same,IC50,MN-60,> 10 µM
same,IC50,NCI-H1563,> 10 µM
same,IC50,PANC-03-27,> 10 µM
same,IC50,NCI-H596,> 10 µM
same,IC50,SK-N-FI,> 10 µM
same,IC50,K5,1.54 µM
same,IC50,NB13,> 10 µM
same,IC50,G-401,> 10 µM
same,IC50,DoTc2-4510,> 10 µM
same,IC50,EW-16,> 10 µM
same,IC50,SW1710,> 10 µM
same,IC50,P30-OHK,> 10 µM
same,IC50,A 172,> 10 µM
same,IC50,U-118-MG,> 10 µM
same,IC50,ACHN,> 10 µM
same,IC50,CP66-MEL,> 10 µM
same,IC50,CW-2,> 10 µM
same,IC50,ASPC1,> 10 µM
same,IC50,COLO-824,> 10 µM
same,IC50,CAL-120,> 10 µM
same,IC50,D-247MG,> 10 µM
same,IC50,GI-1,> 10 µM
same,IC50,LB2518-MEL,> 10 µM
same,IC50,SF-268,> 10 µM
same,IC50,SW1990,> 10 µM
same,IC50,MMAC-SF,> 10 µM
same,IC50,K562,> 10 µM
same,IC50,NB69,> 10 µM
same,IC50,VA-ES-BJ,> 10 µM
same,IC50,HT-1376,> 10 µM
same,IC50,COR-L105,> 10 µM
